Test results published in patent US10920191B2, “Methods of screening embryonic progenitor cell lines” (LINEAGE CELL THERAPEUTICS, INC., priority 2008, dated 2021).

How the values were obtained:
Format in all cases: cell-based, human
cell line Z2 = assay: Differentiation of cell line Z2 with individual differentiation factors, Illumina microarray readout
Description: (§1) To reduce variations in gene expression due to cell cycle artifacts, and to capture an early gene expression profile of the cells, upon being expanded to six well plates, on the day the cells reached confluence, the cells were placed in media with a reduction of serum to 0.5% in the case where the original serum concentration was >5%. In all other cases, serum and/or other growth factors was reduced to 10% of their original values. These quiescence conditions were imposed for five days and all cultures were re-fed two days prior to harvest to reduce feeding difference artifacts. So, by way of example, if the original media was DMEM medium with 10% FCS, then the quiescence synchronization media was DMEM with 0.5% FCS. Total RNA was extracted directly from cells growing in 6-well or 6 cm tissue culture plates using Qiagen Rneasy mini kits according to the manufacturer's instructions. RNA concentrations were measured using a Beckman DU530 or Nanodrop spectrophotometer and RNA quality determined by denaturing agarose gel electrophoresis or an Agilent 2100 bioanalyzer. Whole-genome expression analysis was carried out using Affymetrix Human Genome U133 Plus 2.0 GeneChip® system, Illumina Human-6 v1 and HumanRef-8 v1 Beadchips (Illumina 1), and Illumina Human-6 v2 Beadchips (Illumina 2), and RNA levels for certain genes were confirmed by quantitative PCR. For Illumina BeadArrays, total RNA was linearly amplified and biotin-labeled using Illumina TotalPrep kits (Ambion), and cRNA was quality controlled using an Agilent 2100 Bioanalyzer. cRNA was hybridized to Illumina BeadChips, processed, and read using a BeadStation array reader according to the manufacturer's instructions (Illumina). Relative Fluorescence Unit (RFU) values for all of the cell lines with common probe sets were quantile normalized.
The cell lines of the present invention 7SMOO7 (also designated ACTC298 and used at P18), C4.4 (also designated ACTC87 and used at P14), E44 (also designated ACTC170 and used at P18), E69 (also designated ACTC101 and used at P15), SK17 (also designated ACTC162 and used at P14), SK31 (also designated ACTC164 used at P15), SM35 (also designated ACTC260 used at P12), T36 (also designated ACTC198 used at P19), T43 (also designated ACTC120 used at P17), W11 (also designated ACTC197 used at P12), and Z2 (also designated ACTC255 used at P12), are cultured to five day quiescence as described herein or alternatively exposed to differentiation conditions of Differentiation Factor Protocol I in Table VIII. […] RNA was isolated as described herein and analyzed by Illumina microarrays. […]

cell line SK17 = assay: Differentiation of cell line SK17 with individual differentiation factors, Illumina microarray readout; settings: SK17, after day 14, retinoic acid added (1.0 uM)
Description: as §1, with “So, by way of example, if the original media was DMEM medium with 10% FCS, then the quiescence synchronization media was DMEM with 0.5% FCS. Total RNA was extracted directly from cells growing in 6-well or 6 cm tissue culture plates using Qiagen Rneasy mini kits according to the manufacturer's instructions.” left out, “Relative Fluorescence Unit (RFU) values for all of the cell lines with common probe sets were quantile normalized.” left out

cell line B16 = assay: Differentiation of cell line B16 in gels containing crosslinked hyaluronic acid and gelatin; settings: B16, hyaluronic acid/gelatin hydrogel, in the presence of retinoic acid
Description: The cell line of the present invention designated B16 (ACTC59) that expresses the unique pattern of markers MKX (accession number NM_173576.1), CDH10 (accession number NM_006727.2), MEG3 (accession number NR_002766.1), SCUBE3 (accession number NM_152753.2), and distal HOX genes HOXA11 (accession number NM_000522.3), and HOXD11 (accession number NM_021192.2) when synchronized at quiescence as described herein by culturing 5 days at confluence in DMEM medium with 0.5% serum at passage 16-19 was differentiated in micromass conditions and in a hydrogel containing crosslinked hyaluronic acid and gelatin with supplemented growth factors from Table III as described in Table VIII under the headings “In vitro conditions to induce chondrogenenesis—Micromass Culture” and “Differentiation in gels containing crosslinked hyaluronic acid and gelatin” in the presence of TGFβ3 and retinoic acid as also described in Table VIII under the subheadings “Differentiation in Hydrogels Containing Crosslinked Hyaluronic Acid and Gelatin to Induce Chondrogenesis” and “Retinoic acid and EGF-Containing HyStem-CSS” respectively. […]

W10 cell line = assay: Differentiation of cell line W10, two weeks of culture with retinoic acid; settings: 1.0 uM all trans retinoic acid
Description: The HAND2 and SCARA5 positive cell line W10 (also known as ACTC196) whose most distal HOX gene expression was HOXA4, B7, which is described in U.S. patent application Ser. No. 12/504,630 filed on Jul. 16, 2009 and titled “Methods to Accelerate the Isolation of Novel Cell Strains from Pluripotent Stem Cells and Cells Obtained Thereby”, incorporated herein by reference in its entirety, and whose gene expression markers at 18-21 doublings of clonal expansion are disclosed in Table 1, was passaged to P14. […] cells for 14 days under conditions described as In vitro conditions to induce chondrogenenesis—Micromass Culture in Table VIII, that are expected to cause chondrogenic differentiation in cells capable of such differentiation. […] The presence of MYH11 was confirmed by immunocytochemistry.

[1] = Z2 (P12), 14 days, EGF 100 ng/ml, RFU >150 considered positive

Q: Which “BMP7 expression by microarray” value (cell line Z2; Z2, 14 days, 10 ng/mL bFGF) does the source give for “bFGF: growth factor used as individual differentiation factor” here?
A: 196 RFU

Q: Which “BMP7 expression by microarray” value (cell line Z2; Z2, 14 days, 1.0 uM retinoic acid) does the source give for `CC1=C(/C=C/C(C)=C/C=C/C(C)=C/C(=O)O)C(C)(C)CCC1` [retinoic acid, all-trans retinoic acid] here?
A: 271 RFU

Q: And the “MYH11 (smooth muscle marker) expression by microarray” value (cell line SK17)?
A: 1715 RFUs

Q: What about the “renin (REN) expression by microarray” value (cell line SK17) of the same molecule?
A: markedly upregulated

Q: What about the “NPPB (natriuretic peptide precursor B) expression” value (cell line B16) of the same molecule?
A: 11,851 RFUs

Q: What about the MYH11 expression (W10 cell line) of the same molecule?
A: induction of MYH11

Q: What does the source list for “recombinant human EGF: recombinant human EGF used as differentiation factor”?
A: BMP2 expression by microarray (cell line Z2; [1]): 1015 RFU; BMP7 expression by microarray (cell line Z2; [1]): 1084 RFU
